# The source made the active and inactive calls. The rule behind the calls is not given here.
# What was measured:
# [1] = molecular target: Serine/threonine-protein kinase MRCK gamma (Homo sapiens) (UniProt Q6DT37); experiment: Inhibition of DMPK2 (unknown origin) at 10 uM by Ambit Kinomescan binding assay
# [2] = molecular target: Serine/threonine-protein kinase MARK2 (Homo sapiens) (UniProt Q7KZI7); experiment: Inhibition of MARK2 K1 labeling site harbouring HILTGKEVAVKIIDKTQLNSSSLQK in human Huh-7 cells at 10 uM by KiNativ Profiling analysis relative to control; format: cell-based
# Serine/threonine-protein kinase MARK2 (Homo sapiens), sequence (Q7KZI7 whole entry): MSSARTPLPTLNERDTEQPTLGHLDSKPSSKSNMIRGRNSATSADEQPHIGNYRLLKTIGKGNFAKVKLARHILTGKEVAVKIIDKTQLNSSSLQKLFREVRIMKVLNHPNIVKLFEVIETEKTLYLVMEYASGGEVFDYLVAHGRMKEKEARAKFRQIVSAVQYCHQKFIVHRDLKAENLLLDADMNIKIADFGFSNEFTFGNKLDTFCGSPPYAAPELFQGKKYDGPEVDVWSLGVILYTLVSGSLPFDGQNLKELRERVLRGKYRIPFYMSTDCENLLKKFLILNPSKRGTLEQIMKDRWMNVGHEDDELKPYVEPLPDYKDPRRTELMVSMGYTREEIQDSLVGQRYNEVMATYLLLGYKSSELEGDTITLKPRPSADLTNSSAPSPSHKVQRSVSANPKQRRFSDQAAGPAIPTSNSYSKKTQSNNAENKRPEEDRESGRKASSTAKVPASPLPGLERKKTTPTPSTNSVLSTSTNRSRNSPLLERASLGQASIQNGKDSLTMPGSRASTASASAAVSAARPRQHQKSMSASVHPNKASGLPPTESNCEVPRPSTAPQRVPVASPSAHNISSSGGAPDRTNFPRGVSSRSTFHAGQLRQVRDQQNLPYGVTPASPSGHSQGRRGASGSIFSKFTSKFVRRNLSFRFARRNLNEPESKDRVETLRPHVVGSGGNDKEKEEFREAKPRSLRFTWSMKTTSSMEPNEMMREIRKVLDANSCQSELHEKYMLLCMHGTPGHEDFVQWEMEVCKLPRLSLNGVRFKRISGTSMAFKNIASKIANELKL
# [3] = molecular target: Serine/threonine-protein kinase SIK2 (Homo sapiens) (UniProt Q9H0K1); experiment: Inhibition of SIK2 (unknown origin) at 10 uM by Ambit Kinomescan binding assay
# [4] = molecular target: Mitogen-activated protein kinase kinase kinase kinase 3 (Homo sapiens) (UniProt Q8IVH8); experiment: Inhibition of MAP4K3 (unknown origin) at 1 uM by Ambit Kinomescan binding assay relative to control
# Mitogen-activated protein kinase kinase kinase kinase 3 (Homo sapiens), sequence (Q8IVH8 whole entry): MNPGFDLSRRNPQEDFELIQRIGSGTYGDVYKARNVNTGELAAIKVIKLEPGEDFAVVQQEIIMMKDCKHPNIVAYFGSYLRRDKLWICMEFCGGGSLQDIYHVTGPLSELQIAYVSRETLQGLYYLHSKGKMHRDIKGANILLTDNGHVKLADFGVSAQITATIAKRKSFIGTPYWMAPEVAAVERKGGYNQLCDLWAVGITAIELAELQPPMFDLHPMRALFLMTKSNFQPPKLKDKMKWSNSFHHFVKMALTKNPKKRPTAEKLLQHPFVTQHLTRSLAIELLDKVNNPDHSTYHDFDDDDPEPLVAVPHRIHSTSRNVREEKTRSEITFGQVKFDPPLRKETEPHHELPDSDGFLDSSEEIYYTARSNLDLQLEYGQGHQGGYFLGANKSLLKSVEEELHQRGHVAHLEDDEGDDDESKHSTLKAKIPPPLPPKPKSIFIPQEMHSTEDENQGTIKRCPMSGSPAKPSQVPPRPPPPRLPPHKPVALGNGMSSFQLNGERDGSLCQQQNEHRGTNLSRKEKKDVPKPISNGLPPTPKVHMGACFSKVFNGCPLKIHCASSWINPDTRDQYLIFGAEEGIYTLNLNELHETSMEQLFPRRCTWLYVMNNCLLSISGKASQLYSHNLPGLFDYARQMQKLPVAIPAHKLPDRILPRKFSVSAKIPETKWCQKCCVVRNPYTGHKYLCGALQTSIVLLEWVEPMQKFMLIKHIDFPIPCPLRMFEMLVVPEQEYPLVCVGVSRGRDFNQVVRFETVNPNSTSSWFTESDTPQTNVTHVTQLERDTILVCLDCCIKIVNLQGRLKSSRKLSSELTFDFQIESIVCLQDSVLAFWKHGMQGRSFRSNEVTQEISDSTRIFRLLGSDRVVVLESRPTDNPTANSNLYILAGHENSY
# [5] = molecular target: BMP-2-inducible protein kinase (Homo sapiens) (UniProt Q9NSY1); experiment: Inhibition of BIKE (unknown origin) at 1 uM by Ambit Kinomescan binding assay relative to control; values are per cent of control
# BMP-2-inducible protein kinase (Homo sapiens), sequence (Q9NSY1 whole entry, looked up): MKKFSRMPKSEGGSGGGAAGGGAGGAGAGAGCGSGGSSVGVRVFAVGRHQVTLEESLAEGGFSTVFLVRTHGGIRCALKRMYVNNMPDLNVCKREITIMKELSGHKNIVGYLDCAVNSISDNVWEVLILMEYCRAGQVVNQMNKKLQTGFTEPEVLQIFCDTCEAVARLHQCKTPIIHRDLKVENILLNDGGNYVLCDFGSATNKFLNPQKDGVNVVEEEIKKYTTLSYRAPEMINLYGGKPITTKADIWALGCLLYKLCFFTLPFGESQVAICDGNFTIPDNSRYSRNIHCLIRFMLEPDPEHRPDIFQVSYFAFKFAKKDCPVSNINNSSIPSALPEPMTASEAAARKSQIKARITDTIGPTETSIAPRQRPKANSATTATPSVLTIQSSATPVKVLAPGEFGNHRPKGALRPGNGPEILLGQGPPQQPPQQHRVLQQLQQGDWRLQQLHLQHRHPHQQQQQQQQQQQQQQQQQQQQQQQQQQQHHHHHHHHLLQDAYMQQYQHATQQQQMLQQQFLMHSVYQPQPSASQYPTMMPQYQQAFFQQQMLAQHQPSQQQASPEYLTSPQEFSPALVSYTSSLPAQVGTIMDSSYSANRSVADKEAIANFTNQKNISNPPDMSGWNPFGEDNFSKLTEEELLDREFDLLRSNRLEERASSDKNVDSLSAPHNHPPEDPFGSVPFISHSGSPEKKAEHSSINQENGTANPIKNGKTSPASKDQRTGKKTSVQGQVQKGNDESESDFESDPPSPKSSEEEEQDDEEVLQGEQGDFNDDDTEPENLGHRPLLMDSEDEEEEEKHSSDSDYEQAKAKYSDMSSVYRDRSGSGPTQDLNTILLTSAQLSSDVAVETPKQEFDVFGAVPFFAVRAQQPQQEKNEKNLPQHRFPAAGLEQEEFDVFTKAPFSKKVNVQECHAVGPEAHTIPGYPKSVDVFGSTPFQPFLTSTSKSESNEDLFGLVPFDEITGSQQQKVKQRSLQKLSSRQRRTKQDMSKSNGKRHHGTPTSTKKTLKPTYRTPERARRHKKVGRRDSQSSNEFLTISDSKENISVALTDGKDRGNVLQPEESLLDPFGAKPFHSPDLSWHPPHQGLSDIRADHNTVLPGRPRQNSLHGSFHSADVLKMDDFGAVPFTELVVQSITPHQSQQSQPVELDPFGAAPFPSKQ
# [6] = molecular target: T1, Inhibitor of nuclear factor kappa-B kinase subunit beta (Homo sapiens) (UniProt O14920); experiment: Inhibition of IKK-beta (unknown origin) at 1 uM by Ambit Kinomescan binding assay relative to control; values are per cent of control
# T1 sequence (whole entry): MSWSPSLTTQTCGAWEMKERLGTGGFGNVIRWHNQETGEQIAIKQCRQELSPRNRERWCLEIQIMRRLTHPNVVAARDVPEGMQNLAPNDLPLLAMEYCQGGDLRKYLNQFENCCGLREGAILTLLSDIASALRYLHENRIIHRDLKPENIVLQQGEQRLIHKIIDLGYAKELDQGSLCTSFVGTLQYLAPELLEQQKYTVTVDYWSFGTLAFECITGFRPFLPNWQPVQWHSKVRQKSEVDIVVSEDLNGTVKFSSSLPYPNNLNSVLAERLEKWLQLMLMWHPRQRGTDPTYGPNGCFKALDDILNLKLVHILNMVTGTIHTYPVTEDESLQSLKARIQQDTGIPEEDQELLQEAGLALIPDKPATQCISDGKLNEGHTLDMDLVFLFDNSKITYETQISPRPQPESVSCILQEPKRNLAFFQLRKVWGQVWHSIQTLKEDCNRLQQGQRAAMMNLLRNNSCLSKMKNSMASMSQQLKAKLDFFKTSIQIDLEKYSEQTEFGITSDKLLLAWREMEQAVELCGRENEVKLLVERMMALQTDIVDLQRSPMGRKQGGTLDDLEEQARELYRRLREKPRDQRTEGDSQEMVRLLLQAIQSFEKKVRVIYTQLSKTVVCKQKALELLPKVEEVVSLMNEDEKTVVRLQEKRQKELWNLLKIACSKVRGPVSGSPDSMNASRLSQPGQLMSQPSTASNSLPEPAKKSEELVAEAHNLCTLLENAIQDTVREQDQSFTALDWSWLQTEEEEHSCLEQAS
# [7] = system: Epidermal growth factor receptor (Homo sapiens), P00533 [UNDEFINED MUTATION]; experiment: Inhibition of EGFR S752-I759del mutant (unknown origin) at 1 uM by Ambit Kinomescan binding assay relative to control
# [8] = molecular target: Insulin-like growth factor 1 receptor (Homo sapiens) (UniProt P08069); experiment: Inhibition of IGF1R (unknown origin) at 1 uM by Ambit Kinomescan binding assay relative to control; values are per cent of control
# [9] = molecular target: T2, Serine/threonine-protein kinase TAO1 (Homo sapiens) (UniProt Q7L7X3); experiment: Inhibition of TAOK1 (unknown origin) at 1 uM by Ambit Kinomescan binding assay relative to control
# T2 sequence (whole entry): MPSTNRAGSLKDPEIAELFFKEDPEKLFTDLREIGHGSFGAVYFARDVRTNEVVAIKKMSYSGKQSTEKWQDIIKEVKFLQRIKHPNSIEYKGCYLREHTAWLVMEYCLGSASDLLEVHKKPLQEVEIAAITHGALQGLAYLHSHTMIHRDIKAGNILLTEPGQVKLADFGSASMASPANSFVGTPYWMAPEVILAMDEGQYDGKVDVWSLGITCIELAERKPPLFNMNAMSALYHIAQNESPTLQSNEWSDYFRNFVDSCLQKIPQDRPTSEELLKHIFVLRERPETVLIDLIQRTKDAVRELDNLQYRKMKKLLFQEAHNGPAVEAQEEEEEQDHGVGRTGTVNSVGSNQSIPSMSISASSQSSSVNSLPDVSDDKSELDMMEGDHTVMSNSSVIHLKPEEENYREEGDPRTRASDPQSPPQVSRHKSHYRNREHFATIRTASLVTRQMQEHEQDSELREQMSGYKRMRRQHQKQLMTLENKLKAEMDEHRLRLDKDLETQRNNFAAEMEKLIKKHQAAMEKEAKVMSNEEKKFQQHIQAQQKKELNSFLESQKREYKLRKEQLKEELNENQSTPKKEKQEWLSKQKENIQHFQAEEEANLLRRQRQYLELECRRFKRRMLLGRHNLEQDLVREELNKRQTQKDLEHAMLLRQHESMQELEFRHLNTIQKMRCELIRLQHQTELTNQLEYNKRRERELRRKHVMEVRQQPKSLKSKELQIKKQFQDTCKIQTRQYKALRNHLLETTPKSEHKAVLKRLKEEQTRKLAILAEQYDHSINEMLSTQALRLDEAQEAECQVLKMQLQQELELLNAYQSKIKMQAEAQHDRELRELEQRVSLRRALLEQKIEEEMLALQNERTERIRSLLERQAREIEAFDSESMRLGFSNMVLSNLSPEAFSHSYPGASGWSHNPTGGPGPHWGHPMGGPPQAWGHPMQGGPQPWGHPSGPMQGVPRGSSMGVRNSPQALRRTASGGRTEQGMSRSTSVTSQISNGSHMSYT
# [10] = molecular target: Serine/threonine-protein kinase 25 (Homo sapiens) (UniProt O00506); experiment: Inhibition of YSK1 Lys2 labeling site in human Huh-7 cell lysate at 1 uM by KiNativ Profiling analysis relative to control; format: subcellular
# Serine/threonine-protein kinase 25 (Homo sapiens), sequence (O00506 whole entry, looked up): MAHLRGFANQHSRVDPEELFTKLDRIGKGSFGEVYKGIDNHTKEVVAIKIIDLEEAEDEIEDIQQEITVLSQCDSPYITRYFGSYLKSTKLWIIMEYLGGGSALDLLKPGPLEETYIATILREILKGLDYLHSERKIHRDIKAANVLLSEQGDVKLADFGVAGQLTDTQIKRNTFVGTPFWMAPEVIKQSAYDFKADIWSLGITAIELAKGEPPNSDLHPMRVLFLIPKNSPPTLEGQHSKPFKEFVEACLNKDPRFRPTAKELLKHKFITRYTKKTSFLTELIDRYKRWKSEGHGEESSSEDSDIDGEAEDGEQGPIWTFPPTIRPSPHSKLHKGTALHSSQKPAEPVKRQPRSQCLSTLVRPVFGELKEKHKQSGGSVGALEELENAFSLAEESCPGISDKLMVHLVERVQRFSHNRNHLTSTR
# [11] = molecular target: Cyclin-dependent kinase 12 (Homo sapiens) (UniProt Q9NYV4); experiment: Inhibition of CRK7 Lys2 labeling site in human Huh-7 cells at 1 uM by KiNativ Profiling analysis relative to control; format: cell-based
# [12] = molecular target: Microtubule-associated serine/threonine-protein kinase 3 (Homo sapiens) (UniProt O60307); experiment: Inhibition of MAST3 Lys2 labeling site in human Huh-7 cells at 1 uM by KiNativ Profiling analysis relative to control; format: cell-based
# Microtubule-associated serine/threonine-protein kinase 3 (Homo sapiens), sequence (O60307 whole entry): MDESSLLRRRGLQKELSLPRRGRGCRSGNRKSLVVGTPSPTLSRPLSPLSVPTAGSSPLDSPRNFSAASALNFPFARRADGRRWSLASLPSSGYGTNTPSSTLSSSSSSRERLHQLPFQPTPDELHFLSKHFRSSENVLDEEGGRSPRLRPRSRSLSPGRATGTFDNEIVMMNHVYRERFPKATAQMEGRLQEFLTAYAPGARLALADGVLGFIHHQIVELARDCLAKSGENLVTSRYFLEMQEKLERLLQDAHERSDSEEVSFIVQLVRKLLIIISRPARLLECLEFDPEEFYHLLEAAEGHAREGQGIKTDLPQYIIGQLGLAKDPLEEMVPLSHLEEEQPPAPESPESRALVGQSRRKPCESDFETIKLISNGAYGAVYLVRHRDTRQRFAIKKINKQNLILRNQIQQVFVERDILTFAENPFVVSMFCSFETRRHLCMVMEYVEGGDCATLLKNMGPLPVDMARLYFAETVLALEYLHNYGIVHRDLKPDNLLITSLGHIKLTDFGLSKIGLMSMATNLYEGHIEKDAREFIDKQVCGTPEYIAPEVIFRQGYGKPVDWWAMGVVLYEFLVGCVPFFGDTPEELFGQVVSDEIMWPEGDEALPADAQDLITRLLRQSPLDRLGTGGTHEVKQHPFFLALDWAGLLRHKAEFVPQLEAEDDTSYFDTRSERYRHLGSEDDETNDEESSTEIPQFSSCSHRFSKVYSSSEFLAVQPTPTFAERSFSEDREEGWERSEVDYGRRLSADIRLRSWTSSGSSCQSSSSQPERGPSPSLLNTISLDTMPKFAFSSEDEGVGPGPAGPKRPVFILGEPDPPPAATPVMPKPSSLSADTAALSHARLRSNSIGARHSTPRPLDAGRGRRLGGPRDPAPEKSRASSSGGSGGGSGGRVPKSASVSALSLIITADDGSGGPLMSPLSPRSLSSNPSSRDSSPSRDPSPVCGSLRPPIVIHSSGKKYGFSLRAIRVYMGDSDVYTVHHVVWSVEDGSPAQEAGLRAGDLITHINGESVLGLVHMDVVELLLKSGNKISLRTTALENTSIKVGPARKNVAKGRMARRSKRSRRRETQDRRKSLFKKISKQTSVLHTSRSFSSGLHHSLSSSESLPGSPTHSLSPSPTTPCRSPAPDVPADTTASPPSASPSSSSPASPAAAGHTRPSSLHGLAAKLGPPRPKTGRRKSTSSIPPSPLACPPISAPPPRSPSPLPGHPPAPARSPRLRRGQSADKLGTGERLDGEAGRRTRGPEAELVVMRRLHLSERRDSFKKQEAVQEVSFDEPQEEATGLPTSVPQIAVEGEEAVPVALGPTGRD
# [13] = molecular target: Phosphatidylinositol 4-kinase beta (Homo sapiens) (UniProt Q9UBF8); experiment: Inhibition of PI4KB ATP labeling site harbouring VPHTQAVVLNSKDKAPYLIYVEVLECENFDTTSVPARIPENR in human Huh-7 cell lysate at 1 uM by KiNativ Profiling analysis relative to control; format: subcellular
# [14] = molecular target: Cyclin-dependent kinase 9 (Homo sapiens) (UniProt P50750); experiment: Inhibition of CDK9 Lys2 labeling site in human Huh-7 cells at 1 uM by KiNativ Profiling analysis relative to control; format: cell-based
# Cyclin-dependent kinase 9 (Homo sapiens), sequence (P50750 whole entry): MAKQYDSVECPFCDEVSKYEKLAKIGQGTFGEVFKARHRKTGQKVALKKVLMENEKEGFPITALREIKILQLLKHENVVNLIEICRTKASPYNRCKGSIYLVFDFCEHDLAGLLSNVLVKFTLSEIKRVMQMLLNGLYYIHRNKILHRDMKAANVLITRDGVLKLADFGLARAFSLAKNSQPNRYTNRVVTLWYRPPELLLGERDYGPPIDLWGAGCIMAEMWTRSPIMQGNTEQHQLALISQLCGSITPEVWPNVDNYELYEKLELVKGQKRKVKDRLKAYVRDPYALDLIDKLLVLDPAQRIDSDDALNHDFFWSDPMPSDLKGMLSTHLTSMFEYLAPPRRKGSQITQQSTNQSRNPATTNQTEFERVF
smiles,measurement,setting,value
CCN1CCN(Cc2ccc(NC(=O)c3ccc(C)c(Oc4ccnc5[nH]ccc45)c3)cc2C(F)(F)F)CC1,inhibition,[1],inactive
same,inhibition,[2],inactive
same,inhibition,[3],inactive
CCN1CCN(Cc2ccc(NC(=O)c3ccc(C)c(/C=C/c4cnc5[nH]ccc5c4OC)c3)cc2C(F)(F)F)CC1,inhibition,[4],20%
same,residual activity,[5],25%
same,residual activity,[6],5.7%
same,inhibition,[7],1.4%
same,residual activity,[8],100%
same,inhibition,[9],22%
CNc1cc(Oc2cc(C(=O)Nc3cc(N4CCN(C)CC4)cc(C(F)(F)F)c3)ccc2C)ncn1,inhibition,[10],-0.3%
same,inhibition,[11],40.3%
same,inhibition,[12],14.9%
same,inhibition,[13],14.7%
same,inhibition,[14],22.4%
